Results: patent US11203633B2, “Polynucleotides encoding antibodies or antigen binding fragments thereof that bind pseudomonas perv” (priority 2011, dated 2021)

Test system: P. aeruginosa strains (PAO1, 33356, 6294, 6077, 6206)
Experiment: Acute pneumonia model in mice, organ burden (CFU in lung, spleen, kidneys)
Assay type: in vivo, Pseudomonas aeruginosa
Experimental: Antibodies or PBS were administered 24 hours before infection in each model. P. aeruginosa acute pneumonia, keratitis, and thermal injury infection models were performed as described (DiGiandomenico, A., et al., Proc Natl Acad Sci USA 104, 4624-4629 (2007)), with modifications. In the acute pneumonia model, BALB/c mice (The Jackson Laboratory) were infected with P. aeruginosa strains suspended in a 0.05 ml inoculum. In the thermal injury model, CF-1 mice (Charles River) received a 10% total body surface area burn with a metal brand heated to 92° C. for 10 seconds. Animals were infected subcutaneously with P. aeruginosa strain 6077 at the indicated dose. For organ burden experiments, acute pneumonia was induced in mice followed by harvesting of lungs, spleens, and kidneys 24 hours post-infection for determination of CFU.
Organ burden of Pseudomonas-infected mice was also studied in response to administration of V2L2. FIG. 14 (A) Mice were treated with either 1 mg/kg R347 (control), or 1 mg/kg, 0.2 mg/kg, or 0.07 mg/kg of V2L2 and then were infected intranasally with 1.2×10^6 cfu of Pseudomonas 6206. FIG. 14 (B) Mice were also treated with either 15 mg/kg R347 (negative control); 15.0 mg/kg, 5.0 mg/kg, or 1.0 mg/kg mAb166 (positive control); or 5.0 mg/kg, 1.0 mg/kg, or 0.2 mg/kg V2L2 and then were infected intranasally with 5.5×10^6 cfu of Pseudomonas 6206.
The in vivo effect of combination administration of anti-Psl and anti-PcrV binding domains was further studied in mice using the antibodies V2L2 and WapR-004 (RAD). Groups of mice were treated with R347 (2.1 mg/kg—negative control), V2L2 (0.1 mg/kg), W4-RAD (0.5 mg/kg), or V2L2/W4 combination (either 0.1, 0.5, 1.0 or 2.0 mg/kg each). Twenty-four hours post-administration of antibody, all mice were infected with an inoculum containing 5.25×10^5 cfu 6206 (O11-ExoU+). Twenty-four hours post infection, lungs, spleens, and kidneys were harvested, homogenized, and plated for colony forming unit (CFU) identification per gram of tissue.

Cam-003: anti-Psl human IgG1 monoclonal antibody; VH SEQ ID NO:1, VL SEQ ID NO:2
viable CFU vs. R347, Mann-Whitney U-test P (6077 1×10^6 CFU, lung, 45 mg/kg, FIG. 7D): 0.0005
viable CFU vs. R347, Mann-Whitney U-test P (6077, kidneys, 5 mg/kg, FIG. 7D): 0.0021
viable CFU vs. R347, Mann-Whitney U-test P (6077, kidneys, 15 mg/kg, FIG. 7D): 0.0355
viable CFU vs. R347, Mann-Whitney U-test P (6077, kidneys, 45 mg/kg, FIG. 7D): 0.0191
viable CFU vs. R347, Mann-Whitney U-test P (6077, lung, 5 mg/kg, FIG. 7D): 0.0007
viable CFU vs. R347, Mann-Whitney U-test P (6077, lung, 15 mg/kg, FIG. 7D): 0.0003
viable CFU vs. R347, Mann-Whitney U-test P (6077, spleen, 5 mg/kg, FIG. 7D): 0.0089
viable CFU vs. R347, Mann-Whitney U-test P (6077, spleen, 15 mg/kg, FIG. 7D): 0.0089
viable CFU vs. R347, Mann-Whitney U-test P (6077, spleen, 45 mg/kg, FIG. 7D): 0.0015
viable CFU vs. R347, Mann-Whitney U-test P (6294 6.25×10^6 CFU, lung, 5 mg/kg, FIG. 7C): 0.0068
viable CFU vs. R347, Mann-Whitney U-test P (6294 6.25×10^6 CFU, lung, 15 mg/kg, FIG. 7C): 0.0039
viable CFU vs. R347, Mann-Whitney U-test P (6294 6.25×10^6 CFU, lung, 45 mg/kg, FIG. 7C): 0.0003
viable CFU vs. R347, Mann-Whitney U-test P (6294 6.25×10^6 CFU, spleen, 5 mg/kg, FIG. 7C): 0.0012
viable CFU vs. R347, Mann-Whitney U-test P (6294 6.25×10^6 CFU, spleen, 15 mg/kg, FIG. 7C): 0.0230
viable CFU vs. R347, Mann-Whitney U-test P (6294 6.25×10^6 CFU, spleen, 45 mg/kg, FIG. 7C): 0.0057
viable CFU vs. R347, Mann-Whitney U-test P (33356 1×10^7 CFU, lung, 45 mg/kg, FIG. 7B): 0.0010
viable CFU vs. R347, Mann-Whitney U-test P (33356, lung, 5 mg/kg, FIG. 7B): 0.0045
viable CFU vs. R347, Mann-Whitney U-test P (PAO1 1.1×10^7 CFU, lung, 45 mg/kg, FIG. 7A): 0.0015
viable CFU vs. R347, Mann-Whitney U-test P (PAO1, kidneys, 15 mg/kg, FIG. 7A): 0.0056
viable CFU vs. R347, Mann-Whitney U-test P (PAO1, kidneys, 45 mg/kg, FIG. 7A): 0.0092
viable CFU vs. R347, Mann-Whitney U-test P (PAO1, lung, 5 mg/kg, FIG. 7A): 0.0015
viable CFU vs. R347, Mann-Whitney U-test P (PAO1, lung, 15 mg/kg, FIG. 7A): 0.0021
viable CFU vs. R347, Mann-Whitney U-test P (PAO1, spleen, 15 mg/kg, FIG. 7A): 0.0367
viable CFU vs. R347, Mann-Whitney U-test P (PAO1, spleen, 45 mg/kg, FIG. 7A): 0.0120
organ burden, dose dependence (cytotoxic strain 6077, FIG. 7D): the low dose was as effective as the higher dose
dissemination to the spleen and kidneys (mice infected with PAO1, 6294 and 6077, FIG. 7A, C, D): marked effect in reducing dissemination to the spleen and kidneys
lung burden (strains PAO1, 33356, 6294, 6077, FIG. 7A-D): effective at reducing P. aeruginosa lung burden against all four strains tested
